# Results: patent EP1015446B1, “(4-PIPERIDINYL)-1H-2-BENZOPYRAN DERIVATIVES USEFUL AS ANTIPSYCHOTIC AGENTS” (Aventis Pharmaceuticals Inc., priority 1997, dated 1998)
# Counter-ions that a name gives are not always drawn.
# Biological target: T1, cloned human dopamine D2Long receptors (Homo sapiens, UniProt P14416)
# T1 construct: expressed in transfected cells; membranes used
# Test: biochemical
# Type: binding
# Conditions: not given
# T1 sequence (P14416 whole entry): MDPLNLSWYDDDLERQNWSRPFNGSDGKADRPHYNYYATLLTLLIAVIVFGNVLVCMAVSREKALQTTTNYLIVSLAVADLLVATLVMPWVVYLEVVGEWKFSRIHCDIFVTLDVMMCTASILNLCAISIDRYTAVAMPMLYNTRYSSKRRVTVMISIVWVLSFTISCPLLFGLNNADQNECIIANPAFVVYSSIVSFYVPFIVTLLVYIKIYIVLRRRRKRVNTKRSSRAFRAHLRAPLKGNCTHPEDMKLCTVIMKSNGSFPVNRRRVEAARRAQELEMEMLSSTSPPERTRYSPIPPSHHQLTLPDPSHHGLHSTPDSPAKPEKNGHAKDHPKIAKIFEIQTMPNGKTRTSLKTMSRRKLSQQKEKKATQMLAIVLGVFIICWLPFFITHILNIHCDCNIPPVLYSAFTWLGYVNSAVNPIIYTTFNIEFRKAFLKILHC
row,Molecule,Ki [µM]
1,"O=CNC[C@@H]1O[C@H](C2CCN(CCCC(c3ccc(F)cc3)c3ccc(F)cc3)CC2)Cc2c1ccc1c2OC2(CCCCC2)O1 [Example 28, cis-N-[3-[1-[4,4-Bis-(4-fluorophenyl)butyl]-4-DiDeridinyl]-5,6-(cyclohexylidenedioxy)-3,4-dihydro-1H-2-benzopyran-1-ylmethyl]formamide Oxalate Hemihydrate]",0.639

# Same assay, conditions: Binding to Human D2Long Receptors; displacement of [3H]N-methyl spiroperidol (0.4 nM), membranes of transfected Chinese Hamster Ovary cells, 37 °C, 30 min; read-out: Ki
row,Molecule,Ki [µM]
1,"CS(=O)(=O)N1CCC([C@@H]2Cc3c(ccc(O)c3O)[C@H](CN)O2)CC1 (relative stereo) [Example 3D, cis-1-(Aminomethyl)-3,4-dihydro-3-(1-methylsulfonyl-4-piperidinyl)-1H-2-benzopyran-5,6-diol Hydrobromide]",4.2
2,"Br.Br.CC(=O)Oc1ccc2c(c1OC(C)=O)C[C@@H](C1CCN(CCc3ccccc3)CC1)O[C@H]2CN (relative stereo) [Example 4E, cis-1-(Aminomethyl)-5,6-diacetoxy-3,4-dihydro-3-[1-(2-phenylethyl)-4-piperidinyl]-1H-2-benzopyran Dihydrobromide]",1.52
3,"CCN1CCC([C@@H]2Cc3c(ccc(O)c3O)[C@H](CN)O2)CC1 (relative stereo) [Example 8, cis-1-(Aminomethyl)-3,4-dihydro-3-(1-ethyl-4-piperidinyl)-1H-2-benzopyran-5,6-diol Dihydrobromide]",2.51
4,"Br.Br.NC[C@@H]1O[C@H](C2CCN(CCCc3noc4cc(F)ccc34)CC2)Cc2c1ccc(O)c2O (relative stereo) [Example 9, cis-1-(Aminomethyl)-3,4-dihydro-3-[1-[3-(6-fluoro-1,2-benzisoxazol-3-yl)propyl]piperidin-4-yl]-1H-2-benzopyran-5,6-diol Dihydrobromide]",0.178
5,"CNC[C@@H]1O[C@H](C2CCN(CCc3ccc(OC)cc3)CC2)Cc2c1ccc(O)c2O (relative stereo) [Example 10, cis-3,4-Dihydro-3-[1-[2-(4-methoxyphenyl)ethyl]-4-piperidinyl]-1-(N-methylaminomethyl)-1H-2-benzopyran-5,6-diol Dihydrochloride]",2.5
6,"NC[C@@H]1O[C@H](C2CCN(CCc3cccs3)CC2)Cc2c1ccc(O)c2O (relative stereo) [Example 25, cis-1-Aminomethyl-3,4-dihydro-3-[1-(2-(thiophen-2-yl)-ethyl-4-piperidinyl]-1H-2-benzopyral-5,6-diol Dihydrochloride Hydrate]",2.1
7,"Cc1ccccc1CCN1CCC([C@@H]2Cc3c(ccc(O)c3O)[C@H](CN)O2)CC1 (relative stereo) [Example 26, cis-1-Aminomethyl-3,4-dihydro-3-[1-[2-(2-methylphenyl)ethyl]-4-piperidinyl]-1H-2-benzopyran-5,6-diol Dihydrochloride]",0.684
8,"cis-1-(3-[3-[4-[1-(Aminomethyl)-3,4-dihydro-5,6-dihydroxy-1H-2-benzopyran-3-yl]-1-piperidinyl]propoxy]-3-methoxyphenyl)ethanone Dihydrochloride Dihydrate [Example 31]",1.1
9,"cis-3-[1-[2-(4-Chlorophenyl)ethyl]--4-piperidinyl]-3,4-dihydro-1-(N-methylaminomethyl)-1H-2-benzopyran-5,6-diol dihydrochloride hemihydrate [Example 15]",0.413

# Tested on: CD-1 male mice
# Test: Climbing mouse assay (CMA): antagonism of apomorphine-induced climbing
# Type: in vivo
# Conditions: not given
# Method: This test may be used as to identify compounds useful in treating psychosis. Costall, B. et al, Eur. J. Pharm. 50: 39-50 (1978); Protais, P., et al., Psychopharmacology 50:1-6 (1976). […] This effect of apomorphine is antagonized by the D2 receptor antagonist.
# CD-1 male mice (20-30 grams) are assigned to groups of 8 and individually placed in wire mesh stick cages and allowed one hour for adaptation to new environment. Apomorphine is injected at 1.5 mg/kg subcutaneously which is a dose which causes climbing in all subjects for thirty minutes. Test compounds are administered intraperitoneally thirty minutes prior to the apomorphine administration at a dose of 20 mg/kg.
# For evaluation of climbing, three readings are taken at ten, twenty and thirty minutes after apomorphine administration according to the following scale:
# The climbing scores are individually totaled (maximal score: 6 per mouse over three readings) and total score of the control (vehicle intraperitoneally (ip) and apomorphine subcutaneous) is set to 100%. ED50 values with 95% confidence limits calculated by a linear regression analysis of some of the compounds of the present invention as well as a standard antipsychotic agent (clozapine) are presented in Table 1.
row,Molecule,ED50 [mg/kg]
1,"NC[C@@H]1O[C@H](C2CCN(CCc3ccccc3)CC2)Cc2c1ccc(O)c2O (relative stereo) [Example 4D, cis-1-(Aminomethyl)-3,4-dihvdro-3-[1-(2-phenylethyl)-4-piperidinyl]-1H-2-benzopyran-5,6-diol Dihydrobromide Sesquihydrate]",8.1

# Same assay, conditions: ip, thirty minutes prior to apomorphine 1.5 mg/kg subcutaneously, climbing scored at ten, twenty and thirty minutes, linear regression analysis, read-out: ED50
row,Molecule,ED50 [mg/kg]
1,"Br.Br.CC(=O)Oc1ccc2c(c1OC(C)=O)C[C@@H](C1CCN(CCc3ccccc3)CC1)O[C@H]2CN (relative stereo) [Example 4E, cis-1-(Aminomethyl)-5,6-diacetoxy-3,4-dihydro-3-[1-(2-phenylethyl)-4-piperidinyl]-1H-2-benzopyran Dihydrobromide]",11.1
2,"Br.Br.CNC[C@@H]1O[C@H](C2CCN(CCc3ccccc3)CC2)Cc2c1ccc(O)c2O (relative stereo) [Example 5, cis-1-(N-Methylaminomethyl)-3,4-dihydro-3-[1-(2-phenylethyl)-4-piperidinyl)-1H-2-benzopyran-5,6-diol Dihydrobromide]",6.9
3,"Br.Br.NC[C@@H]1O[C@H](C2CCN(CCCc3noc4cc(F)ccc34)CC2)Cc2c1ccc(O)c2O (relative stereo) [Example 9, cis-1-(Aminomethyl)-3,4-dihydro-3-[1-[3-(6-fluoro-1,2-benzisoxazol-3-yl)propyl]piperidin-4-yl]-1H-2-benzopyran-5,6-diol Dihydrobromide]",16
4,"COc1ccc2c(c1OC)C[C@@H](C1CCN(CCCC(=O)c3ccc(F)cc3)CC1)O[C@H]2CNC=O.Cl (relative stereo) [Example 21, N-[3-[1-[4-(4-Fluorophenyl)-4-oxobutyl]-4-piperidinyl]-3,4-dihydro-5,6-dimethoxy-1H-2-benzopyran-1-ylmethyl]formamide Hydrochloride]",19.6
5,"CN1CCN(C2=Nc3cc(Cl)ccc3Nc3ccccc32)CC1 [Clozapine, reference compound]",8.1
